From article PMC6089974 (Nature Communications, 2018) come the findings set out here.

The experiment addresses T1, TmGalA (Thermotoga maritima, UniProt G4FEF4).
T1 construct: gene galA
Nature of the experiment: time-dependent inactivation, dilution assay, residual activity with 4-nitrophenyl α-D-galactopyranoside. In kind it is biochemical. Conditions: covalent, irreversible inactivator; Ki from kobs versus concentration (kinact/Ki analysis); 50 mM HEPES pH 7.4, 37 °C, BSA 1 mg/mL; read-out: Km (μM) / Ki.

T1 sequence (G4FEF4 whole entry): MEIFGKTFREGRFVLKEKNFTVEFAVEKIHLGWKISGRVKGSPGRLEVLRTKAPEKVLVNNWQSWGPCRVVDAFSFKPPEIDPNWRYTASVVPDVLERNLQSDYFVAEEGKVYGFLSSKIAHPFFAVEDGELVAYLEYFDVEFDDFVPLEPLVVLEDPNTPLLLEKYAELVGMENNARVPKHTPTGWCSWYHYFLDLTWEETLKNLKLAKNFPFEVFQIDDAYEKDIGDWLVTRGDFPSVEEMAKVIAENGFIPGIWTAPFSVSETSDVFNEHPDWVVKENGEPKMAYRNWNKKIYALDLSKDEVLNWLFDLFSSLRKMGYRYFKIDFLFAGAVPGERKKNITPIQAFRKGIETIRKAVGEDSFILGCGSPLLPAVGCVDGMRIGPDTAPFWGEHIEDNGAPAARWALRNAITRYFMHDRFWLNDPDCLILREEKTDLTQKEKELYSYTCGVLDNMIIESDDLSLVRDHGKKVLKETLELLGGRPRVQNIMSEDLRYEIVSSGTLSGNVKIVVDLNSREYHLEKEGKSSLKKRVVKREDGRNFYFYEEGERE

As to `OC[C@@H]1[C@H](O)[C@H](O)[C@@H](O)[C@H]2O[C@@H]12` [compound 8, cyclophellitol analog 8], the KI (inactivation) came out at 161 ± 18 µM.
